Columns and labels:
[1] = tested on: P. aeroginosa X239; experiment: In vitro MIC in agar, additional microorganisms; assay type: cell-based
Text: (§1) The compound of Example 13 gave the following in vitro minimum inhibitory concentrations (MIC values), in microgram/milliliter of agar (μg/ml.) against the following additional microorganisms

[2] = tested on: C. tropicalis A17; experiment: In vitro MIC in agar, additional microorganisms; assay type: cell-based; conditions: Candida tropicalis
Text: as §1

[3] = tested on: E. coli EC14; experiment: In vitro MIC in agar, additional microorganisms; assay type: cell-based; conditions: Escherichia coli
Text: as §1

[4] = tested on: S. typhimurium; experiment: In vitro MIC in agar, additional microorganisms; assay type: cell-based; conditions: Salmonella enterica
Text: as §1

[5] = tested on: P. solenaecarum X185; experiment: In vitro MIC in agar, additional microorganisms; assay type: cell-based
Text: as §1

[6] = tested on: P. morganii, indole positive; experiment: In vitro MIC in agar, additional microorganisms; assay type: cell-based; conditions: Morganella morganii
Text: as §1

[7] = tested on: A. flavus; experiment: In vitro MIC in agar, additional microorganisms; assay type: cell-based; conditions: Aspergillus flavus
Text: as §1

[8] = tested on: E. aerogenes EB17; experiment: In vitro MIC in agar, additional microorganisms; assay type: cell-based; conditions: Klebsiella aerogenes
Text: as §1

[9] = tested on: C. freundii CF17; experiment: In vitro MIC in agar, additional microorganisms; assay type: cell-based; conditions: Citrobacter freundii
Text: as §1

[10] = tested on: S. aureus; experiment: In vitro MIC in agar, additional microorganisms; assay type: cell-based; conditions: Staphylococcus aureus
Text: as §1

[11] = tested on: B. bronchiseptica; experiment: In vitro MIC in agar, additional microorganisms; assay type: cell-based; conditions: Bordetella bronchiseptica
Text: as §1

[12] = tested on: H. pneumoniae KL14; experiment: In vitro MIC in agar, additional microorganisms; assay type: cell-based; conditions: Klebsiella pneumoniae
Text: as §1

[13] = tested on: C. ulmi; experiment: In vitro MIC in agar, additional microorganisms; assay type: cell-based
Text: as §1

[14] = tested on: S. facalis X66; experiment: In vitro MIC in agar, additional microorganisms; assay type: cell-based
Text: as §1

[15] = tested on: T. mentagrophytes 27; experiment: In vitro MIC in agar, additional microorganisms; assay type: cell-based; conditions: Trichophyton mentagrophytes
Text: as §1

[16] = tested on: E. amylovora; experiment: In vitro MIC in agar, additional microorganisms; assay type: cell-based; conditions: Erwinia amylovora
Text: as §1

[17] = tested on: S. marcescens SE3; experiment: In vitro MIC in agar, additional microorganisms; assay type: cell-based; conditions: Serratia marcescens
Text: as §1

[18] = tested on: Streptococcus pyogenes C203; experiment: MIC in broth against Streptococcus pyogenes C203; assay type: cell-based
Description: The MIC for the compound of Example 13 against Streptococcus pyogenes C203 in broth was 0.008 μg/ml.

[19] = water
[20] = tested on: S. typhosa SA12; experiment: In vitro MIC in agar, additional microorganisms; assay type: cell-based
[21] = physchem; conditions: water
[22] = tested on: Staphylococcus aureus cultures; experiment: Agar dilution MIC, Example 13 compound vs methicillin resistant Staphylococcus aureus; assay type: cell-based
Text: The table which follows gives the minimum inhibitory concentration (MIC) in micrograms of compound per milliliter of culture (μg/ml), in comparison with similar MIC values for the known antibiotics methicillin, cephalothin and cephaloridine against the same strains of bacteria.

## Cc1nnc(SCC2=C(C(=O)[O-])N3C(=O)C(NC(=O)CSc4ccc(F)c(Cl)c4)[C@H]3SC2)s1.[Na+] (stereo partly shown)
[1]
  MIC: > 128 µg/mL
[2]
  MIC: > 128 µg/mL
[3]
  MIC: 64 µg/mL
[4]
  MIC: 128 µg/mL
[5]
  MIC: > 128 µg/mL
[6]
  MIC: > 128 µg/mL
[7]
  MIC: > 128 µg/mL
[8]
  MIC: 128 µg/mL
[9]
  MIC: > 128 µg/mL
[10]; S. aureus 3055 (penicillin G susceptible)
  MIC: 0.031 µg/mL
[10]; S. aureus 3074 (Pen G. resist.)
  MIC: 0.062 µg/mL
[11]
  MIC: > 128 µg/mL
[12]
  MIC: 64 µg/mL
[13]
  MIC: > 128 µg/mL
[14]
  MIC: 400 µg/mL
[15]
  MIC: > 128 µg/mL
[16]
  MIC: 64 µg/mL
[17]
  MIC: > 128 µg/mL
[18]
  MIC: 0.008 µg/mL
[19]
  solubility upon warming (in words): increases
[20]
  MIC: 32 µg/mL
[21]
  solubility: > 100 mg/mL
[22]; culture 3055 (control), Trypticase Soy Agar with 4.5% NaCl added (5% NaCl)
  MIC: 0.03 µg/mL
[22]; culture 3055 (control), Trypticase Soy Agar, 0.5% NaCl
  MIC: 0.03 µg/mL
[22]; culture 3130, Trypticase Soy Agar with 4.5% NaCl added (5% NaCl)
  MIC: 0.25 µg/mL
[22]; culture 3130, Trypticase Soy Agar, 0.5% NaCl
  MIC: 0.5 µg/mL
[22]; culture 3131, Trypticase Soy Agar with 4.5% NaCl added (5% NaCl)
  MIC: 0.25 µg/mL
[22]; culture 3131, Trypticase Soy Agar, 0.5% NaCl
  MIC: 0.25 µg/mL
[22]; culture 3132, Trypticase Soy Agar with 4.5% NaCl added (5% NaCl)
  MIC: 0.13 µg/mL
[22]; culture 3132, Trypticase Soy Agar, 0.5% NaCl
  MIC: 0.13 µg/mL
[22]; culture 3133, Trypticase Soy Agar with 4.5% NaCl added (5% NaCl)
  MIC: 0.13 µg/mL
[22]; culture 3133, Trypticase Soy Agar, 0.5% NaCl
  MIC: 0.13 µg/mL
[22]; culture 3134, Trypticase Soy Agar with 4.5% NaCl added (5% NaCl)
  MIC: 0.25 µg/mL
[22]; culture 3134, Trypticase Soy Agar, 0.5% NaCl
  MIC: 1 µg/mL
[22]; culture 3135, Trypticase Soy Agar with 4.5% NaCl added (5% NaCl)
  MIC: 0.5 µg/mL
[22]; culture 3135, Trypticase Soy Agar, 0.5% NaCl
  MIC: 0.5 µg/mL
[22]; culture 3136, Trypticase Soy Agar with 4.5% NaCl added (5% NaCl)
  MIC: 0.5 µg/mL
[22]; culture 3136, Trypticase Soy Agar, 0.5% NaCl
  MIC: 0.25 µg/mL
[22]; culture 3137, Trypticase Soy Agar with 4.5% NaCl added (5% NaCl)
  MIC: 1 µg/mL
[22]; culture 3137, Trypticase Soy Agar, 0.5% NaCl
  MIC: 1 µg/mL
[22]; culture 3138, Trypticase Soy Agar with 4.5% NaCl added (5% NaCl)
  MIC: 0.5 µg/mL
[22]; culture 3138, Trypticase Soy Agar, 0.5% NaCl
  MIC: 1 µg/mL
[22]; culture 3139, Trypticase Soy Agar with 4.5% NaCl added (5% NaCl)
  MIC: 0.03 µg/mL
[22]; culture 3139, Trypticase Soy Agar, 0.5% NaCl
  MIC: 0.25 µg/mL
[22]; culture H232 (control), Trypticase Soy Agar with 4.5% NaCl added (5% NaCl)
  MIC: 0.06 µg/mL
[22]; culture H232 (control), Trypticase Soy Agar, 0.5% NaCl
  MIC: 0.06 µg/mL
[22]; culture Havarmak 1136501, Trypticase Soy Agar with 4.5% NaCl added (5% NaCl)
  MIC: 1 µg/mL
[22]; culture Havarmak 1136501, Trypticase Soy Agar, 0.5% NaCl
  MIC: 0.5 µg/mL
[22]; culture S 61, Trypticase Soy Agar with 4.5% NaCl added (5% NaCl)
  MIC: 0.5 µg/mL
[22]; culture S 61, Trypticase Soy Agar, 0.5% NaCl
  MIC: 0.5 µg/mL
[22]; culture Seattle 966, Trypticase Soy Agar with 4.5% NaCl added (5% NaCl)
  MIC: 0.06 µg/mL
[22]; culture Seattle 966, Trypticase Soy Agar, 0.5% NaCl
  MIC: 0.25 µg/mL

Source: patent publication US4175125A, “Method for treating methicillin resistant staphylococcus aureus” (Eli Lilly and Company, priority 1978, dated 1979)
